Assay results taken from publication PMC10312992 (ACS Omega, 2023).

Tests used:
[1] = system: erythrocytes (heparinized bovine blood); test: hemolytic activity; assay type: cell-based; conditions: 35 min at 37 °C, 10^8 cells/mL; PBS negative control 2.45 ± 0.01%
α-glucosidase = α-glucosidase inhibition assay; assay type: biochemical; conditions: at 0.5 mM; mean ± S.E.M., n = 3

| α-glucosidase (%) inhibition (α-glucosidase) [%] | SMILES | hemolysis (%) [1] [%] |
| --- | --- | --- |
| 97.56 ± 0.57 | COC(=O)c1ccccc1NC(=O)C(C)Sc1nnc(Cc2c[nH]c3ccccc23)o1 (stereo not shown) [8l, N-((2-Methoxycarbonyl)phenyl)-2-({5-((1H-indol-3-yl)methyl)-1,3,4-oxadiazol-2-yl}sulfanyl)propanamide] | 8.16 ± 0.02 |
| 92.23 ± 0.14 | C[C@H]1O[C@H](O[C@H]2[C@H](O)[C@@H](O)[C@@H](O[C@H]3[C@H](O)[C@@H](O)C(O)O[C@@H]3CO)O[C@@H]2CO)[C@H](O)[C@@H](O)[C@@H]1N[C@H]1C=C(CO)[C@@H](O)[C@H](O)[C@H]1O (stereo partly shown) [acarbose, reference compound] | – |
| 98.21 ± 0.31 | CCc1ccccc1NC(=O)C(C)Sc1nnc(Cc2c[nH]c3ccccc23)o1 (stereo not shown) [8h, N-(2-Ethylphenyl)-2-({5-((1H-indol-3-yl)methyl)-1,3,4-oxadiazol-2-yl}sulfanyl)propanmide] | 0.83 ± 0.01 |
| 93.38 ± 0.38 | CC(Sc1nnc(Cc2c[nH]c3ccccc23)o1)C(=O)NCCc1ccccc1 (stereo not shown) [8d, N-(2-Phenethyl)-2-({5-((1H-indol-3-yl)methyl)-1,3,4-oxadiazol-2-yl}sulfanyl)propanamide] | 0.05 ± 0.01 |
